Reference: patent US10676479B2, “Imidazolepyridine compounds and uses thereof” (Novartis AG, priority 2016, dated 2020)

Experiments:
[1] = molecular target: wild type PRC2 (wtPRC2) complex (Homo sapiens (Human), UniProt O75530); experiment: EED LC-MS assay; format: biochemical; conditions: EED LC-MS Qualified assay; read-out: (b) IC50
Experimental: EED LC-MS Assay Representative compounds of the present invention were serially and separately diluted 3-fold in DMSO to obtain a total of eight or twelve concentrations. […] A 6 μL solution of 3 μM of the peptide substrate H3K27Me0 (histone H3[21-44]-biotin) in reaction buffer was added to initiate each reaction. […] The data were then fit to a dose response equation using the program Helios to get the IC50 values of the test compound.

[2] = tested on: H3K27 methylation in G401 cell; experiment: ELISA (H3K27 methylation) assay; format: cell-based; conditions: Homo sapiens, G-401, ELISA Qualified assay, 48 h, read-out: (c) IC50
Experimental: ELISA (H3K27 Methylation) Assay
Representative compounds of the present invention were serially and separately diluted 3-fold in DMSO to obtain a total of eight or twelve concentrations. Then the compounds were added to G401 cell cultured in 384-well plate at 1:500 dilution to obtain the highest concentration of 20 μM. The cells were further cultured for 48 h before ELISA procedure.
ELISA protocol: Cell lysates were transferred to the wells of a 384-well plate and the final volume was adjusted to 50 μL per well with PBS. The plate was sealed, centrifuged at 2,000 rpm for 2 min and incubated at 4° C. for about 16 h. The plate was washed with TBST buffer (1×TBS (10×TBS: 24.2 g Tris (Sigma, T6066), 80 g NaCl (Sigma, S3014) to 1 L of water and adjust pH to 7.6 with HCl) with 0.1% Tween-20). Blocking buffer (TBST, 5% BSA; 50 μL per well) was added and the plate was incubated for 1 h at rt. The blocking buffer was removed and primary antibody was added (30 μL per well). […] The primary antibody was incubated in the plate at rt for 1 h. The wells were washed with TBST and incubated with secondary antibody for 1 h at rt. […] After 1 h of incubation at rt, the wells were washed with TBST. […] The signal was read using a PerkinElmer Envision Reader. The H3K27 methylation readouts were normalized using H3 signal and then percentage inhibition was calculated against the samples treated with DMSO. The data were then fit to a dose response curve using the program Helios to get the IC50 values of the test compound.

[3] = molecular target: EED (1-441)-His protein (Homo sapiens (Human), UniProt O75530); experiment: EED-H3K27Me3 peptide competition binding assay by AlphaScreen; conditions: EED Alphascreen binding Qualified assay
Experimental: Then 4 μL of detection beads mix was added to the plate and incubate in the dark at the rt for 1 h. The final concentration of donor and acceptor beads was 10 μg/mL for each. […] The data were then fit to a dose response equation using the program Helios (Novartis) to get the IC50 values. […] Sebaugh, J. […] Each compound was counter screened to determine if it interfered with the AlphaScreen beads. […] The plates were then incubated for 1 h at rt in dark before being read on EnVison.

Sequence of EED (1-441)-His protein (O75530 whole entry): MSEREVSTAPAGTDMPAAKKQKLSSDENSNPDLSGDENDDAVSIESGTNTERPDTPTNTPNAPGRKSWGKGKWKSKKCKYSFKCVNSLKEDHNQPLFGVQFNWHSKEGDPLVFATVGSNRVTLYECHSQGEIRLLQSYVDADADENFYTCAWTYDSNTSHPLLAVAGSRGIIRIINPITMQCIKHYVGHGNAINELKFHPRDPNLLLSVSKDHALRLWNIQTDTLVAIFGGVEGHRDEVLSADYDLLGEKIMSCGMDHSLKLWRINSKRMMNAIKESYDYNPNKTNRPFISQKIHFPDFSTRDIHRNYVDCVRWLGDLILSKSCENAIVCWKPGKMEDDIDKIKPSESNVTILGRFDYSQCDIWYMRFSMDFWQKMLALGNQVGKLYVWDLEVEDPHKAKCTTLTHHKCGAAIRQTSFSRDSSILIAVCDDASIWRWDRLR
Sequence of wild type PRC2 (wtPRC2) complex (O75530 whole entry): as above
Sequence of wild type PRC2 (wtPRC2) complex (Q15910 whole entry partner): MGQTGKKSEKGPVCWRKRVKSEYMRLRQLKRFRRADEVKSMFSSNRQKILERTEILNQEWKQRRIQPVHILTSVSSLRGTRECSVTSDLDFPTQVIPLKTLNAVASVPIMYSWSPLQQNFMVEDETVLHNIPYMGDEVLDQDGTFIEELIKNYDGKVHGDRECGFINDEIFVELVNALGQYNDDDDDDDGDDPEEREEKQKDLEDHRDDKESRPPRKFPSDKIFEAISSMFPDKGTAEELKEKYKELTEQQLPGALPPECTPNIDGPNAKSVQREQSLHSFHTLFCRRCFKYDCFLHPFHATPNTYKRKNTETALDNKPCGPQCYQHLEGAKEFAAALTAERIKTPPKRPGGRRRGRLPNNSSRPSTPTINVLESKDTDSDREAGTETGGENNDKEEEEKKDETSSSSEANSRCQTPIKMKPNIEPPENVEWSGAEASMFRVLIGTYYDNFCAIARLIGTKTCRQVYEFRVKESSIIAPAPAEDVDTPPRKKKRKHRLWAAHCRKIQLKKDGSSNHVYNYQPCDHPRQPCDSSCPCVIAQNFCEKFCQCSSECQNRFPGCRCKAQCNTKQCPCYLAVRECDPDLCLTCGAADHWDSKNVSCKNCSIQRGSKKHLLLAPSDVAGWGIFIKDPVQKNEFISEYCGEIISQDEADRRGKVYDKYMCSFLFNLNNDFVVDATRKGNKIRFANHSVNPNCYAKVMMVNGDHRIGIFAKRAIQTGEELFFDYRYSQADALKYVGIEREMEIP
Sequence of wild type PRC2 (wtPRC2) complex (Q15022 whole entry partner): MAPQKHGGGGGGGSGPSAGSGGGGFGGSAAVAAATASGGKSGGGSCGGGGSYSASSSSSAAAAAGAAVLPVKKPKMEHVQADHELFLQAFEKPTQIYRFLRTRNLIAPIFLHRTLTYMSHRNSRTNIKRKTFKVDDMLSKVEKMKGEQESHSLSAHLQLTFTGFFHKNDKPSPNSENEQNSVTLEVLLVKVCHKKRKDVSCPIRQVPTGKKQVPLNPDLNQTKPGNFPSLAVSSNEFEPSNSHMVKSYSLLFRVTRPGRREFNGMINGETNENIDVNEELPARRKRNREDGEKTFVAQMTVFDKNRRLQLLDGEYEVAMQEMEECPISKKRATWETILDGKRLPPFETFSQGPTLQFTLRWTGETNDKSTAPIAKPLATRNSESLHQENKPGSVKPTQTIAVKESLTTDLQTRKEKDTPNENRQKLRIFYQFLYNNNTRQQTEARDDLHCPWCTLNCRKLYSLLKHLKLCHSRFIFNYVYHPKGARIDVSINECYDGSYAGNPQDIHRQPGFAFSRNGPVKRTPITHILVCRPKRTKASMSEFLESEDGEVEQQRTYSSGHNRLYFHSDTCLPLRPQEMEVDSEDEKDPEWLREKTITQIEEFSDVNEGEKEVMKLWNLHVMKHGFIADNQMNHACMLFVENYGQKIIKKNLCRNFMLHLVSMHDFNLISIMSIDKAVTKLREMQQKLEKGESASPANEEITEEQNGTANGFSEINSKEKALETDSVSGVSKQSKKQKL

Row | Structure (SMILES) | IC50 [1] | IC50 [2] | IC50 [3]
1 | Fc1ccc2c(c1CNc1ncc(-c3ccncc3)c3cncn13)CCO2 [Example 20, N-((5-fluoro-2,3-dihydrobenzofuran-4-yl)methyl)-8-(pyridin-4-yl)imidazo[1,5-c]pyrimidin-5-amine] | 44.1 nM | 81.1 nM | 21.2 nM
2 | Fc1ccc2c(c1CNc1ncc(-c3cccnc3F)c3cncn13)CCO2 [Example 21, N-((5-fluoro-2,3-dihydrobenzofuran-4-yl)methyl)-8-(2-fluoropyridin-3-yl)imidazo[1,5-c]pyrimidin-5-amine] | 21.7 nM | 35.4 nM | 19.5 nM
3 | Cc1cc(-c2cnc(NCc3c(F)ccc4c3CCO4)n3cncc23)ccn1 [Example 24, N-((5-fluoro-2,3-dihydrobenzofuran-4-yl)methyl)-8-(2-methylpyridin-4-yl)imidazo[1,5-c]pyrimidin-5-amine] | 26.5 nM | 52.1 nM | 20.9 nM
4 | CN1CCc2ccc(-c3cnc(NCc4c(F)ccc5c4CCO5)n4cncc34)cc2C1 [Example 26, N-((5-fluoro-2,3-dihydrobenzofuran-4-yl)methyl)-8-(2-methyl-1,2,3,4-tetrahydroisoquinolin-7-yl)imidazo[1,5-c]pyrimidin-5-amine] | 41.5 nM | 54.1 nM | 50.3 nM
5 | CS(=O)(=O)c1cccc(-c2cnc(NCc3c(F)ccc4c3CCO4)n3cncc23)c1 [Example 27, N-((5-fluoro-2,3-dihydrobenzofuran-4-yl)methyl)-8-(3-(methylsulfonyl)phenyl)imidazo[1,5-c]pyrimidin-5-amine] | 23.5 nM | 43 nM | 24.1 nM
6 | Fc1ccc2c(c1CNc1ncc(-c3cccnc3)c3cncn13)CCO2 [Example 28, N-((5-fluoro-2,3-dihydrobenzofuran-4-yl)methyl)-8-(pyridin-3-yl)imidazo[1,5-c]pyrimidin-5-amine] | 21.8 nM | 50.6 nM | 19.9 nM
7 | CS(=O)(=O)Nc1ccc(-c2cnc(NCc3c(F)ccc4c3CCO4)n3cncc23)cc1 [Example 29, N-(4-(5-(((5-fluoro-2,3-dihydrobenzofuran-4-yl)methyl)amino)imidazo[1,5-c]pyrimidin-8-yl)phenyl)methanesulfonamide] | 32.9 nM | 73.4 nM | 37.5 nM
8 | CN(C)CCc1ccc(-c2cnc(NCc3c(F)ccc4c3CCO4)n3cncc23)cn1 [Example 32, 8-(6-(2-(dimethylamino)ethyl)pyridin-3-yl)-N-((5-fluoro-2,3-dihydrobenzofuran-4-yl)methyl)imidazo[1,5-c]pyrimidin-5-amine] | 24.7 nM | 40.4 nM | 8.7 nM
9 | OCCc1ccc(-c2cnc(NCc3c(F)ccc4c3CCO4)n3cncc23)cn1 [Example 34, 2-(5-(5-(((5-fluoro-2,3-dihydrobenzofuran-4-yl)methyl)amino)imidazo[1,5-c]pyrimidin-8-yl)pyridin-2-yl)ethan-1-ol] | 40.1 nM | 59.5 nM | 21.7 nM
10 | Fc1cc(-c2cnc(NCc3c(F)ccc4c3CCO4)n3cncc23)ccn1 [Example 35, N-((5-fluoro-2,3-dihydrobenzofuran-4-yl)methyl)-8-(2-fluoropyridin-4-yl)imidazo[1,5-c]pyrimidin-5-amine] | 26 nM | 74.4 nM | 15.5 nM
11 | O=C(c1ccc(-c2cnc(NCc3c(F)ccc4c3CCO4)n3cncc23)cc1)N1CCCC1 [Example 37, (4-(5-(((5-fluoro-2,3-dihydrobenzofuran-4-yl)methyl)amino)imidazo[1,5-c]pyrimidin-8-yl)phenyl)(pyrrolidin-1-yl)methanone] | 41.9 nM | 81.9 nM | 16.2 nM
12 | CN1CCN(c2ccc(-c3cnc(NCc4c(F)ccc5c4CCO5)n4cncc34)cn2)CC1 [Example 40, N-((5-fluoro-2,3-dihydrobenzofuran-4-yl)methyl)-8-(6-(4-methylpiperazin-1-yl)pyridin-3-yl)imidazo[1,5-c]pyrimidin-5-amine] | 28.2 nM | 66 nM | 17.7 nM

Stronger by IC50 [1], values ahead:

Row | IC50 [1] | IC50 [2] | IC50 [3] | Structure (SMILES)
13 | 9.8 nM | 56.3 nM | 5.5 nM | CS(=O)(=O)c1ccc(-c2cnc(NCc3c(F)ccc4c3CCO4)n3cncc23)cn1 [Example 22, N-((5-fluoro-2,3-dihydrobenzofuran-4-yl)methyl)-8-(6-(methylsulfonyl)pyridin-3-yl)imidazo[1,5-c]pyrimidin-5-amine]
14 | 12.9 nM | 33.6 nM | 12.7 nM | NS(=O)(=O)c1ccc(-c2cnc(NCc3c(F)ccc4c3CCO4)n3cncc23)cc1 [Example 23, 4-(5-(((5-fluoro-2,3-dihydrobenzofuran-4-yl)methyl)amino)imidazo[1,5-c]pyrimidin-8-yl)benzenesulfonamide]
15 | 11.1 nM | 19.5 nM | 7.7 nM | CC(C)S(=O)(=O)c1ccc(-c2cnc(NCc3c(F)ccc4c3CCO4)n3cncc23)cc1 [Example 30, N-((5-fluoro-2,3-dihydrobenzofuran-4-yl)methyl)-8-(4-(isopropylsulfonyl)phenyl)imidazo[1,5-c]pyrimidin-5-amine]
16 | 20.9 nM | 39.9 nM | 14.4 nM | N#Cc1ccc(-c2cnc(NCc3c(F)ccc4c3CCO4)n3cncc23)cn1 [Example 31, 5-(5-(((5-fluoro-2,3-dihydrobenzofuran-4-yl)methyl)amino)imidazo[1,5-c]pyrimidin-8-yl)picolinonitrile]
17 | 15.9 nM | 22.1 nM | 7.5 nM | Cn1nccc1-c1cnc(NCc2c(F)ccc3c2CCO3)n2cncc12 [Example 33, N-((5-fluoro-2,3-dihydrobenzofuran-4-yl)methyl)-8-(1-methyl-1H-pyrazol-5-yl)imidazo[1,5-c]pyrimidin-5-amine]
18 | 17.9 nM | 51.3 nM | 7.6 nM | Cc1cnccc1-c1cnc(NCc2c(F)ccc3c2CCO3)n2cncc12 [Example 36, N-((5-fluoro-2,3-dihydrobenzofuran-4-yl)methyl)-8-(3-methylpyridin-4-yl)imidazo[1,5-c]pyrimidin-5-amine]
19 | 20.8 nM | 47.7 nM | 9.4 nM | Cc1nc(S(C)(=O)=O)ccc1-c1cnc(NCc2c(F)ccc3c2CCO3)n2cncc12 [Example 38, N-((5-fluoro-2,3-dihydrobenzofuran-4-yl)methyl)-8-(2-methyl-6-(methylsulfonyl)pyridin-3-yl)imidazo[1,5-c]pyrimidin-5-amine]
20 | 10.1 nM | 31 nM | 10.5 nM | Fc1ccc2c(c1CNc1ncc(-c3ccc(CN4CCCC4)cc3)c3cncn13)CCO2 [Example 39, N-((5-fluoro-2,3-dihydrobenzofuran-4-yl)methyl)-8-(4-(pyrrolidin-1-ylmethyl)phenyl)imidazo[1,5-c]pyrimidin-5-amine]
21 | 14.6 nM | 51.2 nM | 41.2 nM | CN(C)c1ccc(-c2cnc(NCc3c(F)ccc4c3CCO4)n3cncc23)cn1 [Example 41, 8-(6-(dimethylamino)pyridin-3-yl)-N-((5-fluoro-2,3-dihydrobenzofuran-4-yl)methyl)imidazo[1,5-c]pyrimidin-5-amine]
22 | 8.5 nM | 79.5 nM | 10.4 nM | Cc1cc(S(C)(=O)=O)ccc1-c1cnc(NCc2c(F)ccc3c2CCO3)n2cncc12 [Example 42, N-((5-fluoro-2,3-dihydrobenzofuran-4-yl)methyl)-8-(2-methyl-4-(methylsulfonyl)phenyl)imidazo[1,5-c]pyrimidin-5-amine]
23 | 12.6 nM | 50.9 nM | 10.3 nM | Cc1ccc(-c2cnc(NCc3c(F)ccc4c3CCO4)n3cncc23)c(C)n1 [Example 43, 8-(2,6-dimethylpyridin-3-yl)-N-((5-fluoro-2,3-dihydrobenzofuran-4-yl)methyl)imidazo[1,5-c]pyrimidin-5-amine]
24 | 19.5 nM | 64.5 nM | 8.6 nM | OCCNc1ncc(-c2cnc(NCc3c(F)ccc4c3CCO4)n3cncc23)cn1 [Example 44, 2-((5-(5-(((5-fluoro-2,3-dihydrobenzofuran-4-yl)methyl)amino)imidazo[1,5-c]pyrimidin-8-yl)pyrimidin-2-yl)amino)ethan-1-ol]
